These compounds were tested against T1, P2X3 (Homo sapiens, UniProt P56373) (assay: P2X3 Antagonist Assay (FLIPR calcium, Fluo-8, HEK293 cells transfected with human ion channel cDNAs, αβ-meATP stimulation)). Conditions: @ 1 μM, antagonist mode, αβ-meATP 3 μM.
T1 construct: expressed in transfected cells; host or cells: HEK293
T1 sequence (P56373 1-397): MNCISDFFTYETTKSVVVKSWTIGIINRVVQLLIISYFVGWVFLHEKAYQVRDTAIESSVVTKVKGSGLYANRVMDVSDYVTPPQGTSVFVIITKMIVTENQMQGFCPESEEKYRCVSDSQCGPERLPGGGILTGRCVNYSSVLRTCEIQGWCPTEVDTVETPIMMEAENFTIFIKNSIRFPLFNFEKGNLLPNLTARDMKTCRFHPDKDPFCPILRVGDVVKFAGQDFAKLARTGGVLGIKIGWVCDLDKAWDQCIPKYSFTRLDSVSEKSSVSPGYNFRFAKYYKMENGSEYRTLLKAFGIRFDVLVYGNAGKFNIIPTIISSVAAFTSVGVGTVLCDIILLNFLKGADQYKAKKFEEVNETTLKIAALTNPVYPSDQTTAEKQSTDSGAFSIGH
Type: cell-based
Experimental: Example 59: P2X3 Antagonist Assay
HEK293 were transiently or stably transfected with human ion channel cDNAs as indicated in section 1. Stable transfectants were selected by coexpression with the antibiotic-resistance gene(s) incorporated into the expression plasmid(s). Selection pressure was maintained by including selection antibiotics in the culture medium. HEK293 cells were cultured in Dulbecco's Modified Eagle Medium/Nutrient Mixture F-12 (D-MEM/F-12) supplemented with 10% fetal bovine serum, 100 U/mL penicillin G sodium, 100 J·Lg/mL streptomycin sulfate and appropriate selection antibiotics.
The effect of each test article to act as an antagonist was evaluated. Each test article was evaluated at eight (8) concentrations (0.001, 0.003, 0.01, 0.03, 0.1, 0.3, 1 and 3 μM, n=3) with 4 replicates for each concentration. Experiments were performed with the FLIPR calcium sensitive dye kit (Fluo-8 dye, AAT, Bioquest) according to the manufacturer's instructions. • Dye-loading: Growth media will be removed and add 20 μL of Mg^++-free HBPS containing Fluo-8 for 30 min at 37° C. • Preincubation (FLIPR step 1): Adding 5× (5 μL) test, vehicle, or control article solutions in Mg^+-free HBPS to each well for 20 minutes at room temperature, protected from light. • Stimulation (FLIPR step 2): After pre-incubation, cells will be stimulated with 6× (5 μL) αβ-meATP at final concentration of 3 μM prepared in Mg^++-free HBPS. • Non-Specific Calcium Influx (FLIPR step 3): 5 minutes after stimulation solution addition, non-specific calcium influx will be activated by adding 7×(5 μL) ionomycin at a final concentration of 5 μM. Fluorescence will be recorded continuously during FLIPR steps 2 and 3. • Positive Control Antagonist: PPADS (1 mM).
Data acquisition was performed via the FLIPRControl software that is supplied with the FLIPR System (MDS-AT) and data was analyzed using Microsoft Excel2003 (Microsoft Corp., Redmond, WA).

SMILES	P2X3 IC50 column, given as % @ 1 μM
CNC(=O)c1cc(F)c(-c2nc3cc(C)ccn3c2CC2CCCCN(C(=O)OC)C2)c(F)c1 (single isomer, unassigned) [A17 (Peak 2), methyl 3-((2-(2,6-difluoro-4-(methylcarbamoyl)phenyl)-7-methylimidazo[1,2-a]pyridin-3-yl)methyl)azepane-1-carboxylate]	21% @ 1 μM

Same assay, conditions: @ 1 μM, antagonist mode, αβ-meATP 3 μM, read-out: P2X3 IC50 column, given as % @ 1 μM

SMILES	inhibition at 1 µM
CNC(=O)c1ccc(-c2nc3cc([S+](C)[O-])ccn3c2C[C@H]2CN(C(=O)OC)CCO2)c(F)c1 (single isomer, unassigned) [A47 (Peak 1)]	5%

Same assay, conditions: HEK293, @ 1 μM, antagonist mode, αβ-meATP 3 μM, read-out: P2X3 IC50 column, given as % @ 1 μM

SMILES	inhibition at 1 µM
CNC(=O)c1cc(F)c(-c2nc3cc(C)ccn3c2CC2COCCN(C(=O)OC)C2)c(F)c1 (single isomer, unassigned) [A16 (Peak 1), methyl 6-((2-(2,6-difluoro-4-(methylcarbamoyl)phenyl)-7-meth-ylimidazo[1,2-a]pyridin-3-yl)methyl)-1,4-oxazepane-4-carboxylate]	29%
CNC(=O)c1cc(F)c(-c2[nH]c3cc(C)ccc3c2C[C@H]2CN(C(=O)OC)CCO2)c(F)c1 [Compound A24, methyl (S)-2-((2-(2,6-difluoro-4-(methylcarbamoyl)phenyl)6-methyl-1H-indol-3-yl)methyl)morpholine-4-carboxylate]	10%
CNC(=O)c1cc(F)c(-c2c(C[C@H]3CN(C(=O)OC)CCO3)nc3nc(C)ccn23)c(F)c1 [Compound A33, methyl (S)-2-((3-(2,6-difluoro-4-(methylcarbamoyl)phenyl)-7-methylimidazo[1,2-a]pyrimidin-2-yl)methyl)morpholine-4-carboxylate]	5%

Same assay, conditions: antagonist mode, αβ-meATP 3 μM

SMILES	IC50
CNC(=O)c1cc(C)c(-c2nc3cc(C)ccn3c2C[C@H]2CN(C(=O)OC)CCO2)cc1F [Compound A12, methyl (S)-2-((2-(5-fluoro-2-methyl-4-(methylcarbamoyl)phenyl)-7-methylimidazo[1,2-a]pyridin-3-yl)methyl)morpholine-4-carboxylate]	< 0.1 µM
CNC(=O)c1cc(F)c(-c2nc3cc(C)ccn3c2C[C@H]2CN(C(=O)OC)CCO2)c(F)c1F [Compound A6, methyl (S)-2-((7-methyl-2-(2,3,6-trifluoro-4-(methylcarbamoyl)-phenyl)imidazo[1,2-a]pyridin-3-yl)methyl)morpholine-4-carboxylate]	< 0.1 µM
CNC(=O)c1cc(F)c(-c2nc3nc(C)ccn3c2C[C@H]2CN(C(=O)OC)CCO2)c(F)c1 [Compound A28, methyl (S)-2-((2-(2,6-difluoro-4-(methylcarbamoyl)phenyl)-7-methylimidazo[1,2-a]pyrimidin-3-yl)methyl)morpholine-4-carboxylate]	< 0.1 µM
CNC(=O)c1cc(F)c(-c2nc3cc(C(F)F)ccn3c2C[C@H]2CN(C(=O)OC)CCO2)c(OC)c1F [Compound A41, methyl (S)-2-((2-(3,6-difluoro-2-methoxy-4-(methylcarbamoyl)-phenyl)-7-(difluoromethyl)imidazo[1,2-a]pyridin-3-yl)methyl)morpholine-4-carboxylate]	0.1 to 1 µM
CNC(=O)c1ccc(-c2nc3cc(Cl)ccn3c2C[C@H]2CN(C(=O)OC)CCO2)c(Cl)c1 [Compound A9, methyl (S)-2-((2-(2-chloro-4-(methylcarbamoyl)phenyl)-7-chloro-imidazo[1,2-a]pyridin-3-yl)methyl)morpholine-4-carboxylate]	< 0.1 µM
CNC(=O)c1cc(F)c(-c2nc3cc(F)ccn3c2C[C@H]2CN(C(=O)OC)CCO2)c(F)c1 [Compound A1, methyl (S)-2-((2-(2,6-difluoro-4-(methylcarbamoyl)phenyl)-7-fluoroimidazo[1,2-a]pyridin-3-yl)methyl)morpholine-4-carboxylate]	0.1 to 1 µM
CNC(=O)c1cc(F)c(-c2nc3cc(C)ccn3c2CC2CCCN(C(=O)OC)CC2)c(F)c1 (single isomer, unassigned) [A18 (Peak 2), methyl 4-((2-(2,6-difluoro-4-(methylcarbamoyl)phenyl)-7-methylimidazo[1,2-a]pyridin-3-yl)methyl)azepane-1-carboxylate]	0.1 to 1 µM
CNC(=O)c1cc(C)c(-c2nc3cc(C(F)F)ccn3c2C[C@H]2CN(C(=O)OC)CCO2)cc1F [Compound A44, methyl (S)-2-((7-(difluoromethyl)-2-(5-fluoro-2-methyl-4-(meth-ylcarbamoyl)phenyl)imidazo[1,2-a]pyridin-3-yl)methyl)morpholine-4-carboxylate]	< 0.1 µM
CNC(=O)c1cc(F)c(-c2nc3cc(OC)ccn3c2C[C@H]2CN(C(=O)OC)CCO2)c(F)c1 [Compound A3, methyl (S)-2-((2-(2,6-difluoro-4-(methylcarbamoyl)phenyl)-7-methoxyimidazo[1,2-a]pyridin-3-yl)methyl)morpholine-4-carboxylate]	< 0.1 µM
CNC(=O)c1cc(F)c(-c2cc3cc(C)ccc3n2C[C@H]2CN(C(=O)OC)CCO2)c(F)c1 [Compound A23, methyl (S)-2-((2-(2,6-difluoro-4-(methylcarbamoyl)phenyl)-5-methyl-1H-indol-1-yl)methyl)morpholine-4-carboxylate]	0.1 to 1 µM
CNC(=O)c1cc(F)c(-c2nc3cc(C)ccn3c2CC2CCCC(NC(C)=O)C2)c(F)c1 (single isomer, unassigned) [cis-A22 (Peak 1), 4-(3-((3-acetamidocyclohexyl)methyl)-7-methylimidazo[1,2-a]pyridin-2-yl)-3,5-difluoro-N-methylbenzamide]	< 0.1 µM
